Reference: patent publication US6921775B2, “Methods for modulating brain damage” (Children's Medical Center Corporation, priority 2001, dated 2005)

What was measured:
P7 rat pups = test: Hypoxia/ischemia (unilateral carotid ligation followed by hypoxia, 6% O2 for one hour) selective white matter injury model; assay type: in vivo
From the text: The methods used in this example are described in Follett et al. (2000) J. Neurosci. 20:9235-9241, incorporated by reference herein.
Because the white matter of premature infants at high risk for hypoxic/ischemic white matter injury is also populated with immature OLs (Kinney and Back, 1998), this age was chosen to deliver the hypoxic/ischemic insult. […] Injury was limited to the white matter without evidence of injury to cortical neurons. […] Ipsilateral injury included the loss of MBP expression in the OL processes extending into the cortex and decreased thickness of the periventricular white matter and external capsule in four of nine rats.
P7 rat pups underwent unilateral carotid ligation followed by hypoxia (6% O2 for one hour). Following hypoxia, littermates were treated with either topiramate (30 mg/kg, i.p., q12 h, 4 doses, n=12) or vehicle (n=12). 48 hours after hypoxia/ischemia, pups were evaluated with in situ end labeling (ISEL) for the presence of cell death in white matter. Briefly, coronal sections were labeled for the presence of single-stranded DNA fragments as a sensitive indicator of cell death. ISEL positive cells in white matter ipsilateral to the ligation in each of three coronal sections (at the level of the anterior hippocampus, mid-dorsal hippocampus, and posterior dorsal hippocampus) were counted and a mean was taken for each rat.
96 hours post-ischemia/hypoxia, pups were evaluated with ICC for loss of MBP expression ipsilateral to the ligation as compared to the contralateral side. Coronal sections were evaluated by immunocytochemistry with a monoclonal against MBP, and detected with fluorescent secondary antibody. Three sections were evaluated for each rat: the anterior hippocampus, the mid-dorsal hippocampus, and the posterior dorsal hippocampus. Lesion severity was assigned a value on a scale from 0 to 3 as follows: 0 if ipsilateral and colateral hemispheres were similar; 1 if ipsilateral loss was limited to cortical processes; 2, if loss of staining included thinning of the periventricular white matter; and 3 if white matter tracts included a full thickness loss of staining in the capsule. A mean severity score was obtained for immature and mature OL markers in each rat.
Litters of male Long Evans rat pups (Charles River Laboratories, Wilmington, Mass.) were raised with dams in a temperature-controlled environment with 12 hour light-dark cycles. Pups underwent carotid ligation and hypoxia at post-natal-day (P)7. They were recovered on a thermal blanket at 33-34° C. (baseline temperature for P7 rats) and returned to their dam for 48-96 hours prior to sacrifice. Treated pups were given intra-peritoneal (i.p.) injections of 0.1 cc solutions of topiramate, NBQX or vehicle every 12 hours for 48 hours at P7 and P8 for treatment, control and normal development studies.
Hypoxic/ischemic injury was generated in rats by unilateral carotid ligation followed by hypoxia (6% for 1 hour). […] The methods used in this example are described in Follett et al (2000) J. Neurosci. 20:9235-9241, incorporated by reference herein.
Briefly, rats were anesthetized with ether and the proximal internal carotid artery was isolated from the sympathetic chain and ligated. Animals requiring prolonged sedation due to technical issues were removed from the study. The animals were recovered one hour, then placed in a sealed chamber infused with nitrogen to a level of 6% O2, with body temperature maintained at 33-34° C. throughout. […] Pups were allowed a 1-2 hour period of recovery after hypoxia then returned to their dam. Pups were randomized into treatment and control groups by weight to insure no size variation existed between the subjects and controls to start. Following hypoxia animals in the treatment group were given i.p. injections of topirmate (10, 30 or 50 mg/kg in 0.1 cc PBS) or equivalent volume of saline repeat treatment every 12 hours for 48 hours. […]

[1] = tested on: calcium permeable AMPA/kainate receptors; test: AMPA induced cobalt uptake in coronal brain slices; assay type: cell-based; settings: P7 rat slices, 100 μM AMPA, 100 μM MK-801, 20 minute
From the text: P6/7 Long Evans rat pups were sacrificed by decapitation and the brains were removed quickly and placed in ice cold rat ACSF. 300 μm coronal slices were cut on a live-slice dedicated vibratome while continually maintained in oxygen bubbled, cold ACSF. Slices were transferred to an oxygen chamber, where they were maintained at room temperature.
300 μm thick vibratome cut coronal slices were collected from the anterior commissure to the anterior aspect of the thalamus and placed in oxygen-rich ice cold rat ACSF. Stabilized slices were transferred to a room temperature oxygen chamber and maintained in ACSF. Stable slices were transferred to modified ACSF containing low calcium and 5 mM CoCL2 and stimulated with 100 μM AMPA in the presence of 100 μM MK-801 and with or without topiramate in varying concentrations. Slices were incubated at room temperature for 20 minutes then rinsed in ACSF, followed by 3 rinses in ASCF containing 2 mM EDTA to chelate and remove any unbound cobalt. Cobalt was then precipitated with ammonium […]. Sections were fixed in 4% paraformaldehyde for 10 minutes, rinsed and stored in PBS. Silver enhancement of precipitate was carried out for improved visualization. Slices were transferred to enhancement solution (10% sucrose, 15.5 mM hydroquinone, 42 mM citric acid) and warmed to 50° C. Slices were moved to similar solution containing 0.1% silver nitrate, then incubated at 50° C. for 45 minutes, with solution changes every 15 minutes. Sections were rinsed in PBS then cryoprotected in 30% sucrose solution and 40 μm sections, cut using a freezing microtome, were mounted on slides and analyzed.
Cortical slices were assessed for the presence of AMPA induced cobalt uptake in coronal slices from P7 rats. […] Immature OLs in pericallosal white matter at P7 show consistent cobalt uptake following 20 minute incubation with 100 μM AMPA, 100 μM MK-801 in low Ca^2+, cobalt containing rat ACSF (FIG. 6B). Cobalt-containing white matter cells were identified as OL precursors by immunolabeling with O4 surface antigen (FIG. 6C and FIG. 6D). […]

[2] = 100 μM NBQX or 50 μM topiramate
[3] = P7 rats, topiramate 30 mg/kg i.p. q12 h 4 doses, 96 hours

| SMILES | white matter injury, semiquantitative lesion severity by MBP expression (P7 rat pups; P7 rats, NBQX post-treatment at termination of hypoxia, 96 hours after insult, vs vehicle-treated controls, p<0.001) | white matter injury, semiquantitative lesion severity by O1 expression (P7 rat pups; P7 rats, NBQX post-treatment at termination of hypoxia, 96 hours after insult, vs vehicle-treated controls, p<0.005) | treated pups with no detectable injury (P7 rat pups; P7 rats, NBQX post-treatment, 96 hours after insult) | rectal temperature, treated vs untreated groups (P7 rat pups; P7 rats, NBQX treatment initiated after hypoxia) | cobalt uptake in immature OLs of pericallosal white matter [1, 2] | protective effect at the lower dose (MBP injury) (P7 rat pups; Example 3, 10 mg/kg per dose (40 mg/kg divided over 48 hours)) | lesion severity, blinded semi-quantitative analysis of MBP expression (P7 rat pups; Example 3, 30 mg/kg topiramate every 12 hours for 48 hours, 96 hours after hypoxia, vs vehicle p<0.01) | effect at the higher dose (MBP injury) (P7 rat pups; Example 3, 50 mg/kg per dose (200 mg/kg divided over 48 hours)) | body temperature by rectal probe, treatment vs control groups (P7 rat pups; Example 3, P7 rats, monitored at each stage) | dose with maximal protective effect (MBP injury) (P7 rat pups; Example 3, partial dose response 10, 30, 50 mg/kg every 12 hours for 48 hours) | pups with less than 20 ISEL positive cells per section in subcortical white matter ipsilateral to the ligation (P7 rat pups; P7 rats, topiramate 30 mg/kg i.p. q12 h 4 doses, 48 hours after hypoxia/ischemia) | white matter cell death (ISEL positive cells) (P7 rat pups; P7 rats, topiramate 30 mg/kg i.p. q12 h 4 doses, 48 hours after hypoxia/ischemia, p<0.03) | pups with no appreciable loss of MBP expression ipsilateral to the carotid ligation (P7 rat pups; [3]) | pups with severe injury (MBP loss) (P7 rat pups; [3]) | loss of MBP expression ipsilateral to the ligation (P7 rat pups; P7 rats, topiramate 30 mg/kg i.p. q12 h 4 doses, 96 hours post-ischemia/hypoxia, p=0.04) | cobalt uptake in immature OLs of pericallosal white matter ([1]; 10 μM topiramate) |
| --- | --- | --- | --- | --- | --- | --- | --- | --- | --- | --- | --- | --- | --- | --- | --- | --- |
| NS(=O)(=O)c1cccc2c1c([N+](=O)[O-])cc1nc(O)c(O)nc12 [NBQX, 2,3-Dioxo-6-nitro-1,2,3,4-tetrahydrobenzo[f]quinoxaline-7-sulphonamide] | significant attenuation of white matter injury | significant attenuation of white matter injury | three of seven | No difference in rectal temperatures | effectively blocked | – | – | – | – | – | – | – | – | – | – | – |
| CC1(C)O[C@@H]2[C@@H](CO[C@@]3(COS(N)(=O)=O)OC(C)(C)O[C@@H]23)O1 [topiramate] | – | – | – | – | effectively blocked | less efficacy | significant attenuation of lesion severity | question of possible toxicity | did not differ between treatment and control groups | 30 mg/kg/dose | Five out of six | significant decreases in white matter cell death | two out of five | None of the topiramate treated pups exhibited severe injury | significant attenuation of MBP loss | partial effect |
